Experimental data: paper PMC3605511, “Tumor P-Glycoprotein Correlates with Efficacy of PF-3758309 in in vitro and in vivo Models of Colorectal Cancer” (Frontiers in Pharmacology, 2013)
Where “and” joins values, the source holds several entries; their conditions need not be identical. Equal values may be shown once. Read-outs that look alike come from different tables or passages of the source.

Tests used:
SW48 cell line xenograft = assay: CRC cell line xenograft efficacy, SW48; assay type: in vivo, mice; details: 25 mg/kg orally twice daily, 14–28 days, end of study tumor volumes
Experimental: For cell line xenografts, CRC cells were harvested in exponential phase growth and resuspended in a 1:1 mixture of serum-free RPMI 1640 and Matrigel (BD Biosciences). Five to ten million cells per mouse were injected subcutaneously into the flank using a 23-gauge needle. Mice were monitored daily for signs of toxicity and were weighed twice weekly. Tumor size was evaluated twice per week by caliper measurements using the following formula: tumor volume = length × width^2 × 0.52. When tumors reached 200–300 mm^3 mice were randomized into two groups with at least 10 tumors per group. Mice were then treated for 14–28 days (until control tumor volume reach ∼1500 mm^3) with either vehicle control (0.5% methylcellulose), or PF-3758309 (25 mg/kg) twice daily by oral gavage.
Human tumor xenograft models were used to evaluate the efficacy of PF-309 in vivo. Eleven different CRC cell line tumor xenografts were treated with 25 mg/kg PF-309 twice daily by oral gavage for 14–28 days (until control tumor volumes reached ∼1500 mm^3). Tumor volumes were measured throughout the study and the % growth inhibition was calculated from the average end of study tumor volumes by:
% Growth Inhibition= (average control volume−average treated volume)/average control volume×100%

[1] = End of study tumor and plasma concentrations (LC/MS/MS); assay type: in vivo, mice; details: for Plasma concentration / Tumor concentration / Tumor: plasma ratio / concentration at 1 h / Kp at 1 h: end of study, 1 h post treatment, individual animals; for Plasma concentration / Tumor concentration / concentration at 1 h: 25 mg/kg PO BID; for concentration at 1 h: po; for Kp at 1 h: tumor and plasma, read-out: Tumor: plasma ratio
Experimental: Plasma and tumor samples were collected 1 h post treatment at the end of therapeutic studies or 6 h post treatment for P-gp tumor concentration studies. PF-309 was measured in mouse plasma and tumor tissue using a validated LC/MS/MS assay carried out by the University of Colorado Cancer Center Pharmacology Shared Resource. Positive ion electrospray ionization (ESI) mass spectra were obtained with a 3200 QTrap triple quadrupole mass spectrometer (Applied Biosystems Inc., Foster City, CA, USA) with a turboionspray source interfaced to an Agilent 1200 Series binary HPLC system (Agilent Technologies Inc., Santa Clara, CA, USA), and a HTC-PAL auto-sampler (LEAP Technologies, Carrboro, NC, USA). Samples were chromatographed with a Waters Sunfire 2.5 μm C18 column (4.6 × 50 mm; Waters Corp., Milford, MA, USA) with a Phenomenex C18 filter frit guard cartridge (Phenomenex, Torrance, CA, USA). The LC elution was done with a gradient starting at 10% Acetonitrile with 0.1% formic acid:90% 0.1% formic acid held for 1.5 min followed by a 1-min linear gradient to 98% Acetonitrile with 0.1% formic acid: 2% 0.1% formic acid at a flow rate of 750 μl/min and a sample volume of 50 μl. The total analysis time was 5.5 min.
The mass spectrometer settings were: source temperature, 600°C, ion spray voltage, 4500 V, source gas, 50, curtain gas (CUR), 10, collision gas (CAD), low, and needle position 3. Transition specific parameters used were 491.2 → 284.2/491.2 → 148.3/372.2 → 176.1: declustering potential (DP), 46.32/46.54/56.86 V, exit potential (EP), 6.45/3.23/4.08 V, collision cell entrance potential (CEP), 25.92/27.80/20.56 V, collision energy (CE), 40.00/53.10/32.75 V, collision cell exit potential (CXP), 0.42/1.47/2.72 V. Samples were quantified by the internal standard reference method in the MRM mode by monitoring for PF-3758309 transitions of m/z 491.2 → 284.2 and 491.2 → 148.3, and for the internal standard (trazodone) of m/z 372.2 → 176.1. Unknown, standard and quality control samples were extracted from mouse plasma or tumor homogenates (100 mg/ml) by the sequential addition of 5 μl 500 ng/ml internal standard (trazodone), 250 μl acetonitrile:methanol (3:1) to 50 μl plasma/tumor homogenate. Samples were then vortexed for 5 min followed by centrifugation for 10 min at 17,000 rpm. 200 μl of supernatant was then transferred to a microcentrifuge tube followed by the addition of 400 μl 0.1% formic acid followed by vortexing (5 min) and centrifugation (5 min at 13,300 rpm) and the supernatant collected (600 μl) and transferred to auto-sampler vials. The average accuracy and precision based on analysis of quality control samples was 93.1 and 98.7% for plasma samples (range: 1–2500 ng/mL) and 91.9 and 98.2% for tumor (range: 5–5000 ng/mL).
In addition to the cell line xenografts, we also treated 12 different patient derived tumor xenograft (PDTX) CRC models with PF-309 (Figure 6). We were unable to assess how ABCB1 gene expression correlated with efficacy in these models. The PDTX models are propagated in vivo, are not immortalized, and are not grown in in vitro culture. Therefore, we have observed some changes in ABCB1 gene expression in some of our models over time and the direction of the change is not consistent (data not shown). In lieu of analyzing gene expression profiles, we sought to determine if tumor concentration correlated with in vivo response. Tumor and plasma sample pairs were collected from animals at the end of study for eight tumor models (three cell line xenografts and five PDTX models) and concentrations of PF-309 were measured. […] Significant correlations (p < 0.003) were found between both tumor concentration and response and tumor to plasma ratios and response (Table 3).

Plasma concentration ([1]; CUCRC006 model, 25 mg/kg): 24.4 ng/mL
Tumor concentration ([1]; CUCRC006 model, 25 mg/kg): 3.4 ng/g
Tumor: plasma ratio ([1]; CUCRC006 model): 0.14
Tumor: plasma ratio ([1]; CUCRC026 model): 0.25 and 0.13 and 0.33 and 0.09
Plasma concentration ([1]; CUCRC036 model, 25 mg/kg): 40.6 ng/mL and 110 ng/mL and 81.3 ng/mL
Tumor concentration ([1]; CUCRC036 model, 25 mg/kg): 65.7 ng/g and 30.7 ng/g and 47.6 ng/g
Tumor: plasma ratio ([1]; CUCRC036 model): 1.62 and 0.28 and 0.59
Plasma concentration ([1]; CUCRC042 model, 25 mg/kg): 1.17 ng/mL and 4.58 ng/mL
Tumor concentration ([1]; CUCRC042 model, 25 mg/kg): 29.6 ng/g
Tumor: plasma ratio ([1]; CUCRC042 model): 29.8 and 6.46
Plasma concentration ([1]; CUCRC047 model, 25 mg/kg): 98.7 ng/mL
Tumor concentration ([1]; CUCRC047 model, 25 mg/kg): 7.5 ng/g
Tumor: plasma ratio ([1]; CUCRC047 model): 0.08
Plasma concentration ([1]; Colo201 model, 25 mg/kg): 11.7 ng/mL
Tumor concentration ([1]; Colo201 model, 25 mg/kg): 140.4 ng/g and 11.1 ng/g
Tumor: plasma ratio ([1]; Colo201 model): 6.72 and 0.95
Plasma concentration ([1]; GEO model, 25 mg/kg): 5.48 ng/mL and 54.1 ng/mL and 76.6 ng/mL
Tumor concentration ([1]; GEO model, 25 mg/kg): 10.2 ng/g and 15.9 ng/g and 22.9 ng/g
Tumor: plasma ratio ([1]; GEO model): 1.9 and 0.3
Plasma concentration ([1]; HCT15 model, 25 mg/kg): 10.0 ng/mL and 13.2 ng/mL and 49.0 ng/mL
Tumor concentration ([1]; HCT15 model, 25 mg/kg): 8.9 ng/g and 8.0 ng/g
Tumor: plasma ratio ([1]; HCT15 model): 0.68 and 0.67 and 0.16
Cmax ([1]; mouse, plasma, oral, 25 mg/kg, mice, Cmax (1 h), read-out: total plasma concentrations at the Cmax): 10 to 100 nM
concentration at 1 h ([1]; mouse, plasma, 25 mg/kg, CUCRC006 model, read-out: Plasma concentration): 42.4 ng/mL
concentration at 1 h ([1]; mouse, plasma, 25 mg/kg, CUCRC047 model, read-out: Plasma concentration): 110 ng/mL
concentration at 1 h ([1]; mouse, plasma, 25 mg/kg, Colo201 model, read-out: Plasma concentration): 20.9 ng/mL
Kp at 1 h ([1]; mouse, oral, 25 mg/kg, CUCRC006 model): 0.08
Kp at 1 h ([1]; mouse, oral, 25 mg/kg, CUCRC047 model): 0.04
concentration at 1 h ([1]; mouse, tumor, 25 mg/kg, CUCRC006 model, read-out: Tumor concentration): 3.6 ng/g
concentration at 1 h ([1]; mouse, tumor, 25 mg/kg, CUCRC042 model, read-out: Tumor concentration): 34.8 ng/g
concentration at 1 h ([1]; mouse, tumor, 25 mg/kg, CUCRC047 model, read-out: Tumor concentration): 4.4 ng/g
concentration at 1 h ([1]; mouse, tumor, 25 mg/kg, HCT15 model, read-out: Tumor concentration): 6.8 ng/g
SMILES: Cc1nc(Nc2n[nH]c3c2CN(C(=O)N[C@H](CN(C)C)c2ccccc2)C3(C)C)c2sccc2n1 [PF-309]
% Growth inhibition (SW48 cell line xenograft): 45%
Plasma concentration ([1]; CUCRC026 model, 25 mg/kg): 25.4 ng/mL and 114 ng/mL and 69.3 ng/mL and 184 ng/mL
Tumor concentration ([1]; CUCRC026 model, 25 mg/kg): 6.4 ng/g and 14.5 ng/g and 22.7 ng/g and 16.8 ng/g
